Test results as given in patent US4347371A, “Disulfide compounds” (Santen Pharmaceutical Co., Ltd., priority 1978, dated 1982).
Read-outs that look alike come from different tables or passages of the source.

Tests used:
[1] = tested on: angiotensin I-converting enzyme; assay: Suppressive effect on the pressor response to angiotensin I in unanesthetized rats, oral administration (angiotensin I-converting enzyme inhibition); format: in vivo, Male Wistar strain rats; conditions: rat, angiotensin I 300 ng/kg i.v.
Method: As recently it has been clear that the compounds inhibiting angiotensin I-converting enzyme may be the curative potency against both renal hypertension and essential hypertension, the compounds [I] of this invention are evaluated as antihypertensive agents by the following method.
Male Wistar strain rats weighing 200-300 g were used. Under ether anesthesia, polyethylene cannulae are inserted into carotid artery and jugular vein. The cannula to carotid artery is connected to an electric transducer, while the cannula to jugular vein is connected to an apparatus for continuous infusion. After the complete recovery from anesthesia, angiotensin I is infused intravenously in a dose of 300 ng/kg by the apparatus for continuous infusion, and the pressor response is recorded by polygraph (Nihon Koden, RM-150). The compounds of this invention suspended in 0.5% tragacanth solution are administered orally in a dose of 0.3 ml per 100 g of body weight, and the pressor response to angiotensin I infused intravenously is measured with time.

Aldose reductase = molecular target: T1, Aldose reductase (Rattus norvegicus, UniProt P07943); assay: Inhibitory activity against aldose reductase purified from rat lenses (absorbance at 340 nm); format: biochemical
T1 construct: Aldose reductase is purified from rat lenses; from tissue; host or cells: rat lens

[2] = Acute toxicity test in mice, oral; parameters: species or system male ddy-std. strain mice; conditions: mouse, in vivo, male ddy-std. mice, 0.5% tragacanth suspension
Method: The male ddy-std. strain mice (4 weeks of age, weighing 19-21 g) were placed in a breeding room of constant temperature and humidity (23°±1° C., 55±5%) and fed freely pellet diet (CE-2, Clea Japan, Inc.) and water ad. libitum for a week. The mice showing the normal growth were selected for the experiment.
Test compound is suspended in 0.5% tragacanth solution, and administered orally in a dose of 0.5 ml per 20 g B.W.

[3] = pH 6.2, DL-glyceraldehyde 4×10^-4 M, NADPH 5×10^-5 M, read-out: IC50 (molar concentration producing 50% inhibition of aldose reductase)

With `O=C(O)C1CCC(c2ccccc2O)N1C(=O)CCS` (single isomer, unassigned) [Compound 27A, α-(+)5-(2-hydroxyphenyl)-1-(3-mercaptopropanoyl)-2-pyrrolidinecarboxylic acid, reference compound] the “Inhibition (%) of pressor response to angiotensin I” value (“Inhibition (%) of pressor response” below) ([1]; dose 1.3 mg/kg oral, 25 min) was 70% and the “Inhibition (%) of pressor response” value ([1]; dose 1.3 mg/kg oral, 65 min) was 50%.
With `O=C(O)C1CCC(c2ccccc2O)N1C(=O)CCSSCCC(=O)N1C(C(=O)O)CCC1c1ccccc1O` (single isomer, unassigned) [Compound 27] the “Inhibition (%) of pressor response” value ([1]; dose 1.3 mg/kg oral, 25 min) was 65% and the “Inhibition (%) of pressor response” value ([1]; dose 1.3 mg/kg oral, 65 min) was 55%.
With `O=C(O)[C@@H]1CSC(c2ccccc2O)N1C(=O)CCSSCCC(=O)N1C(c2ccccc2O)SC[C@H]1C(=O)O` (stereo partly drawn) [Compound 1, (4R,4'R)-3,3'-[3,3'-Dithiobis(propanoyl)]bis[2-(2-hydroxyphenyl)-4-thiazolidinecarboxylic acid]] the “Inhibition (%) of pressor response” value ([1]; dose 1.0 mg/kg oral, 25 min) was 45%, the “Inhibition (%) of pressor response” value ([1]; dose 1.0 mg/kg oral, 65 min) was 55% and the IC50 (Aldose reductase; [3]) was 97 nM. It also gave an LD50 [2] of 15000 mg/kg.
In the case of `O=C(O)[C@@H]1CSC(c2ccccc2O)N1C(=O)CCS` (stereo partly drawn) [Compound 1A, (4R)2-(2-hydroxyphenyl)-3-(3-mercaptopropanoyl)-4-thiazolidinecarboxylic acid, reference compound], the “Inhibition (%) of pressor response” value ([1]; dose 1.0 mg/kg oral, 25 min) is reported as 55% and the “Inhibition (%) of pressor response” value ([1]; dose 1.0 mg/kg oral, 65 min) is reported as 35%.
For `C[C@H](CSSC[C@@H](C)C(=O)N1C(c2ccccc2O)SC[C@H]1C(=O)O)C(=O)N1C(c2ccccc2O)SC[C@H]1C(=O)O` (stereo partly drawn) [Compound 2, (4R,4'R)-3,3'-[3,3'-Dithiobis[(2S)-2-methylpropanoyl]]bis[2-(2-hydroxyphenyl)-4-thiazolidinecarboxylic acid]], the “Inhibition (%) of pressor response” value ([1]; dose 1.4 mg/kg oral, 25 min) was 30%, the “Inhibition (%) of pressor response” value ([1]; dose 1.4 mg/kg oral, 65 min) was 35% and the IC50 (Aldose reductase; [3]) was 97 nM.
For `C[C@H](CS)C(=O)N1C(c2ccccc2O)SC[C@H]1C(=O)O` (stereo partly drawn) [Compound 2A, (4R)2-(2-hydroxyphenyl)-3-[(2S)-3-mercapto-2-methylpropanoyl]-4-thiazolidinecarboxylic acid, reference compound], the “Inhibition (%) of pressor response” value ([1]; dose 1.4 mg/kg oral, 25 min) was 40% and the “Inhibition (%) of pressor response” value ([1]; dose 1.4 mg/kg oral, 65 min) was 30%.
With `CC(=O)Oc1ccccc1C1SC[C@@H](C(=O)O)N1C(=O)CCSSCCC(=O)N1C(c2ccccc2OC(C)=O)SC[C@H]1C(=O)O` (stereo partly drawn) [Compound 3, (4R,4'R)-3,3'-[3,3'-Dithiobis(propanoyl)]bis[2-(2-acetoxyphenyl)-4-thiazolidinecarboxylic acid]] the “Inhibition (%) of pressor response” value ([1]; dose 1.0 mg/kg oral, 25 min) was 15%, the “Inhibition (%) of pressor response” value ([1]; dose 1.0 mg/kg oral, 65 min) was 55% and the IC50 (Aldose reductase; [3]) was 870 nM.
With `O=C(O)[C@@H]1CSC(c2ccccc2O)N1C(=O)CCCSSCCCC(=O)N1C(c2ccccc2O)SC[C@H]1C(=O)O` (stereo partly shown) [Compound 4] the IC50 (Aldose reductase; [3]) was 96 nM.
Compound `O=C(O)[C@@H]1CSC(c2ccccc2)N1C(=O)CCSSCCC(=O)N1C(c2ccccc2)SC[C@H]1C(=O)O` (stereo partly shown) [Compound 7] has an IC50 (Aldose reductase; [3]) of 200 nM.
`Cc1ccc(C2SC[C@@H](C(=O)O)N2C(=O)[C@H](C)CSSC[C@@H](C)C(=O)N2C(c3ccc(C)cc3)SC[C@H]2C(=O)O)cc1` (stereo partly drawn) [Compound 8, (4R,4'R)-3,3'-[3,3'-dithiobis[(2S)-2-methylpropanoyl]]bis[2-(4-methylphenyl)-4-thiazolidinecarboxylic acid]] gave an IC50 (Aldose reductase; [3]) of 450 nM.
With `O=C(O)[C@@H]1CSC(c2cccc(O)c2)N1C(=O)CCSSCCC(=O)N1C(c2cccc(O)c2)SC[C@H]1C(=O)O` (stereo partly shown) [Compound 10] the IC50 (Aldose reductase; [3]) was 730 nM.
`C[C@H](CSSC[C@@H](C)C(=O)N1C(c2cc(Cl)ccc2O)SC[C@H]1C(=O)O)C(=O)N1C(c2cc(Cl)ccc2O)SC[C@H]1C(=O)O` (stereo partly drawn) [Compound 11, (4R,4'R)-3,3'-[3,3'-dithiobis[(2S)-2-methylpropanoyl]]bis[2-(5-chloro-2-hydroxyphenyl)-4-thiazolidinecarboxylic acid]] showed an IC50 (Aldose reductase; [3]) of 640 nM.
Work on `O=C(O)[C@@H]1CSC(c2ccccc2O)N1C(=O)CSSCC(=O)N1C(c2ccccc2O)SC[C@H]1C(=O)O` (stereo partly shown) [Compound 15] yielded an IC50 (Aldose reductase; [3]) of 310 nM.
With `C[C@H](CSSC[C@@H](C)C(=O)N1C(c2cccc3ccccc23)SC[C@H]1C(=O)O)C(=O)N1C(c2cccc3ccccc23)SC[C@H]1C(=O)O` (stereo partly shown) [Compound 24] the IC50 (Aldose reductase; [3]) was 870 nM.
With `CCCSSCCC(=O)N1C(c2ccccc2O)SC[C@H]1C(=O)O` (stereo partly drawn) [Compound 34, (4R)-2-(2-Hydroxyphenyl)-3-(3-propyldisulfanylpropanoyl)-4-thiazolidinecarboxylic acid] the “Inhibition (%) of pressor response” value ([1]; dose 1.0 mg/kg oral, 25 min) was 45%, the “Inhibition (%) of pressor response” value ([1]; dose 1.0 mg/kg oral, 65 min) was 55% and the IC50 (Aldose reductase; [3]) was 860 nM.
For `COc1ccc(C2SC[C@@H](C(=O)O)N2C(=O)[C@H](C)CS)cc1` (stereo partly drawn) [Compound 37A, (4R)3-[(2S)-3-mercapto-2-methylpropanoyl]-2-(4-methoxyphenyl)-4-thiazolidinecarboxylic acid, reference compound], the “Inhibition (%) of pressor response” value ([1]; dose 1.0 mg/kg oral, 25 min) was 40% and the “Inhibition (%) of pressor response” value ([1]; dose 1.0 mg/kg oral, 65 min) was 20%.
With `C=CCSSC[C@@H](C)C(=O)N1C(c2ccc(OC)cc2)SC[C@H]1C(=O)O` (stereo partly shown) [Compound 37] the “Inhibition (%) of pressor response” value ([1]; dose 1.0 mg/kg oral, 25 min) was 60% and the “Inhibition (%) of pressor response” value ([1]; dose 1.0 mg/kg oral, 65 min) was 35%.
`O=C(O)[C@@H]1CSC(c2ccccc2O)N1C(=O)CCSSCC1CCCO1` (stereo partly shown) [Compound 39] gave an IC50 (Aldose reductase; [3]) of 840 nM.
For `O=C(O)CCSSCCC(=O)N1C(c2ccccc2O)SC[C@H]1C(=O)O` (stereo partly drawn) [Compound 41, (4R)-3-[3-(2-Carboxyethyldisulfanyl)propanoyl]-2-(2-hydroxyphenyl)-4-thiazolidinecarboxylic acid], the “Inhibition (%) of pressor response” value ([1]; dose 1.3 mg/kg oral, 25 min) was 50%, the “Inhibition (%) of pressor response” value ([1]; dose 1.3 mg/kg oral, 65 min) was 60% and the IC50 (Aldose reductase; [3]) was 20 nM.
In the case of `CCCSSC[C@@H](C)C(=O)N1CSC[C@H]1C(=O)O` [Compound 43, (4R)-3-[(2S)-2-methyl-3-propyldisulfanylpropanoyl]-4-thiazolidinecarboxylic acid], the “Inhibition (%) of pressor response” value ([1]; dose 1.0 mg/kg oral, 25 min) is reported as 70% and the “Inhibition (%) of pressor response” value ([1]; dose 1.0 mg/kg oral, 65 min) is reported as 40%.
For `C[C@H](CS)C(=O)N1CSC[C@H]1C(=O)O` [Compound 43A, (4R)3-[(2S)-3-mercapto-2-methylpropanoyl]-4-thiazolidinecarboxylic acid, reference compound], the “Inhibition (%) of pressor response” value ([1]; dose 1.0 mg/kg oral, 25 min) was 50% and the “Inhibition (%) of pressor response” value ([1]; dose 1.0 mg/kg oral, 65 min) was 30%.
In the case of `CC(C)(C)C(=O)OCOC(=O)[C@@H]1CSC(c2ccccc2O)N1C(=O)CCSSCCC(=O)N1C(c2ccccc2O)SC[C@H]1C(=O)OCOC(=O)C(C)(C)C` (stereo partly drawn) [Compound 49, Bis[(2,2-dimethyl-1-oxopropoxy)methyl](4R,4'R)-3,3'-[3,3'-dithiobis(propanoyl)]bis[2-(2-hydroxyphenyl)-4-thiazolidinecarboxylate]], the “Inhibition (%) of pressor response” value ([1]; dose 1.3 mg/kg oral, 25 min) is reported as 35% and the “Inhibition (%) of pressor response” value ([1]; dose 1.3 mg/kg oral, 65 min) is reported as 60%.
With `C[C@@H]1O[C@@H](Oc2c(-c3ccc(O)c(O)c3)oc3cc(O)cc(O)c3c2=O)[C@H](O)[C@H](O)[C@H]1O` [Control, Quercitrin, reference compound] the IC50 (Aldose reductase) was 90 nM.
